This passage reports melting point results from a melting point compilation (Tetko et al.; mined from patent text by program, amines drawn as free bases though some values may be those of a salt).

In general, melting point refers to the temperature, or range, at which the solid turns liquid.

In turn, `COC(=O)C1(CCCN2CCN(c3ccccc3)CC2)Oc2ccccc2CCC1O` (centres undefined) yielded a melting point of 98 to 99 °C.

For the compound `CN(Cc1cccc2c1CN(C1CCC(=O)NC1=O)C2=O)C(=O)c1ccc(Cl)c(Cl)c1` (centres undefined), the melting point lay within 228 to 230 °C. For the compound `CC(C)(C)P1(=S)CCC1`, the melting point fell in the range of 120 to 121 °C. The compound `COc1ccc(-c2c(Cl)c(CNC(C)=O)nc3sc4c(c23)CCN(Cc2ccccc2)C4)cc1OC` came in with a melting point of 172 to 174 °C. Turning to `CCSc1cc(C)nc(SCC)c1NC(=O)CCCSc1nc2ccccc2[nH]1`, the melting point was 160 to 161 °C. With `Cc1cccc2c3c([nH]c12)CCCC3=O` the figure was more than 247 °C; with `CCOc1ccc2nc(Sc3ccc([N+](=O)[O-])c(N)c3)sc2c1`, 126 to 129 °C. As for `C=CCOc1cc(-c2cc(=O)c3c(O)cc(O)cc3o2)ccc1OC`, the melting point amounted to 219 °C. `CCCCCCN(Cc1cccnc1)C(Nc1ccc(OC)cc1OC)=C1C(=O)OC(C)(C)OC1=O` showed a melting point of 154 to 155 °C.

In turn, `CC(C)(C)OC(=O)N[C@]1(C)CC[C@H](CS(=O)(=O)c2ccc(S(C)(=O)=O)cc2)C1(C)C` showed a melting point of 200 to 203 °C. Compound `OC(CN1CCNC1=S)c1cccc(F)c1` (centres undefined) came in with a melting point of 116 °C. For `CC(C)(C)c1ccccc1N1CCN(C(=O)c2ncoc2CCC(=O)O)CC1`, the melting point is 180 to 181 °C. Regarding `CNC(=O)C1(Nc2nc(Nc3cc4c(cc3OC)CCN(CC(=O)N(C)C)CC4)ncc2Cl)CC1`, the melting point was in the range of 118 to 125 °C. `COCCOc1ccc(C(=O)C2=C(O)C(=O)N(c3ccc(C)nn3)C2c2ccc(OC(F)(F)F)cc2)cc1` (centres undefined) returned a melting point of 216 to 219 °C. `Cc1c(O)ccc(C(=O)c2cccs2)c1C`: the melting point amounted to 144 °C.

In turn, `COc1cc2c(cc1OC)C(=O)C(N1CCC(n3c(=O)[nH]c4ccccc43)CC1)CC2` (centres undefined) gave a melting point of 238 to 239 °C. As for `CCCc1c(C(=O)C(C)C)c2ccc(CC(N)=O)cc2n1Cc1cc2c(cc1Cl)OCO2`, the melting point fell in the range of 136 to 138 °C. For `CC[C@@]1(O)C(=O)OCc2c1cc1n(c2=O)Cc2c-1nc1ccc(C)c3c1c2C(NC(C)=O)CN3` (some centres undefined), the melting point lay in the range of 225 to 235 °C.

Take `CCOc1cc([C@@H](CC(=O)N(C)C)N2Cc3cccc(NCC(C)(C)C)c3C2=O)ccc1OC`: the melting point was 111 to 113 °C. Take `COc1ccc(C=O)c(Cl)c1O`: the melting point was in the range of 204 to 206 °C. The compound `CS(=O)(=O)N=C(NCCSCc1ccco1)Oc1ccccc1O` showed a melting point of 110 to 112 °C. Take `NC1=NS(=O)N=C1NCCCN1c2ccccc2CCc2ccccc21` (centres undefined): the melting point lay within 227 to 230 °C. In turn, `CCOc1nn(Cc2cc(OCc3nc(-c4ccccc4)oc3C)no2)cc1CCC(=O)O` showed a melting point of 142 to 143 °C. `Fc1ccc(-c2csc(Nc3ccccc3C(F)(F)F)n2)cc1`: the melting point amounted to 184 °C. `CN(C)CCN1C(=O)c2cscc2N(C)c2ncccc21` displayed a melting point of 129 to 130 °C.

On to `Cc1cc(N)cc(C)c1Oc1ccc(O)c(Cc2ccc(F)cc2)c1`, for which the melting point is 179 to 182 °C. For `CC(C)(C)C(=O)Nc1cccc(-c2ccnc3c(C(=O)c4ccccc4)cnn23)c1`, the melting point is 160 to 161 °C. `CC(C)c1ccc(C2NCCc3c2[nH]c2ccccc32)cc1` (centres undefined): the melting point worked out at 146 °C. Turning to `CC(=O)OCCN1CSC(=Cc2cc(C(C)(C)C)c(O)c(C(C)(C)C)c2)C1=O`, the melting point was in the range of 152 to 155 °C. With `Cc1cccnc1-n1ccnc1S(=O)Cc1ccccc1N` (centres undefined) the figure was 112 to 114 °C; with `CN(C(=O)COc1nnc(C(F)(F)F)s1)c1ccccc1`, 54 °C; with `CC(=O)Oc1cccc(C(Br)C(Br)c2ccccc2)c1` (centres undefined), 156 to 157 °C. With `Cc1cccc2[nH]c(Cl)nc12` the figure was 138 to 140 °C; with `Fc1ccc(C2=Nc3cccnc3Nc3ccccc32)cc1`, 203 to 205 °C; with `CC(=O)OCCN(CCOC(C)=O)c1ccc(C=CC=Cc2ccc([N+](=O)[O-])cc2)cc1`, 195 to 198 °C.

Take `CCN1CC(OCC2(C)CC2)(C(F)(F)F)c2cc(Cl)ccc2NC1=O` (centres undefined): the melting point is 171 to 172 °C.

`N#CC(CC1CCCCC1)c1ccc(Cl)cc1Cl` (centres undefined) registered a melting point of 58.8 °C. In the case of `COc1cc(C=CC(=O)c2cc(OC)c(OC)c(OC)c2)cc(C(F)(F)F)c1O`, the melting point fell in the range of 190 to 192 °C. `COc1ccc(C(=O)NCCc2ccccc2)cc1OC` came in with a melting point of 123 to 124 °C.

`Cc1cc(OC2SCC(O)C(O)C2O)c(-c2ccnn2-c2ccccc2)cc1Cl` (centres undefined) had a melting point of 95 to 99 °C. `Cc1cccc(C)c1SC(CC(C)C)c1c(O)cc(-c2ccccc2)oc1=O` (centres undefined) showed a melting point of 166 to 167 °C. With `CCCC1(CC(=O)O)OCCc2c1[nH]c1c(F)ccc(C(=O)N3CCOCC3)c21` (centres undefined) the figure was 98 to 100 °C; with `O=C(Nc1cscn1)C(F)(F)F`, 138 to 139 °C.

In turn, `O=C([C@@H]1CCCN1C(=O)OCc1ccccc1)N1CCOCC1` came in with a melting point of 139 to 140 °C. As for `CCC(=O)Nc1c(C)c(C)c2c(c1C)CC(C)(C)O2`, the melting point came to 146 °C. `COC(=O)c1ccccc1NC(=S)NN(C)C` yielded a melting point of 149 to 152 °C.

Regarding `CCOC(=O)c1cn(-c2cnc(Cl)c(N)c2)c2c(Cl)c(F)c(F)cc2c1=O`, the melting point was in the range of 233 to 236 °C. In the case of `O=C1NC(=O)/C(=C/c2cn(-c3ccccc3)nc2OCc2ccccc2)S1`, the melting point was more than 300 °C. `CS(=O)(=O)c1ccc(-c2cc(Br)sc2-c2ccc(F)cc2)cc1` gave a melting point of 122 to 124 °C. In the case of `CCCCS(=O)Cc1ccc(CS(=O)CCCC)cc1` (centres undefined) it was 187 to 188 °C.

Regarding `C=C(c1ccn[nH]1)c1ccc(OCC(=O)OCC)c(Cl)c1Cl`, the melting point lay within 110 to 112 °C. `O=C(C=CC(F)(F)F)Nc1ccc2ncnc(Nc3cccc(Br)c3)c2c1` yielded a melting point of 273 to 278 °C. Compound `COc1cc(C(C)=O)c(O)cc1N1CCN(Cc2ccccc2)CC1` had a melting point of 90 to 92 °C. Consider `C#CCc1c(C)nc2c(OCc3ccccc3OC)cccn12`, for which the melting point was in the range of 134 to 136 °C. For the compound `Cn1c(C(F)(F)F)cc(=O)n(-c2cc(S(=O)(=O)NC(=O)OCc3ccccc3)c(Cl)cc2F)c1=O`, the melting point fell in the range of 231 to 232 °C.

Compound `O=C(O)CC[C@@H](C(=O)OCc1ccccc1)n1c2ccccc2c2ccccc21` gave a melting point of 100 °C. `COC(=O)CC1=c2ccccc2=Cc2ccccc2O1`: the melting point fell in the range of 59 to 63 °C. With `C=C(C)c1cnn(-c2ccnc3cc(Cl)ccc23)c1`, the melting point was in the range of 85.5 to 88 °C. Turning to `CCc1cc2c(s1)-n1c(nnc1C1CCCCC1)CN=C2c1ccccc1Cl`, the melting point lay within 116 to 119 °C.

Turning to `CCCCCC1CCc2cc(C(=O)Oc3ccc(C#N)cc3)ccc2C1` (centres undefined), the melting point was in the range of 72.7 to 73.3 °C. Compound `CCOC(=O)c1cn2c(Cl)cccc2n1` had a melting point of 143 to 145 °C. `Cc1cccc(-c2nc(N)ncc2-c2ccc(=O)n(C)n2)c1` displayed a melting point of 214 °C. `N#Cc1nn(-c2c(Cl)cc(C(F)(F)F)cc2Cl)c(N)c1-c1ccccc1F` yielded a melting point of 197 °C. As for `O=S(=O)(c1ccccc1)c1ncc(C(F)(F)F)cc1F`, the melting point is 82 to 83 °C. In turn, `CCN1CCCC1CNC(=O)c1cc(-n2cnnn2)ccc1OC` (centres undefined) registered a melting point of 171 to 174 °C.

The compound `CN(C)c1ccc(C(=O)NC(=O)Nc2ccc3c(c2)NC(=O)/C3=C\c2ccc[nH]2)cc1` yielded a melting point of 285 to 290 °C. `CCCCN1CCC(C(=O)NO)(S(=O)(=O)c2ccc(OC)cc2)CC1` registered a melting point of 75 °C. `Cc1sc(Cc2ccccc2)c(-c2ccc(-c3ccc(OS(=O)(=O)c4ccc(C(=O)O)c(O)c4)cc3)cc2)c1C` yielded a melting point of 173 to 175 °C.

`CCOc1ccc2c(c1)n(-c1ccccn1)c(=O)n2S(=O)(=O)c1ccc(C(=O)O)cc1OC` registered a melting point of 241 °C. `N#CCCN1c2ccccc2Sc2ccccc21` returned a melting point of 158 to 160 °C. As to `Cc1ccccc1-n1c(C=Cc2ccccc2F)nc2nccnc2c1=O`, the melting point is more than 250 °C. `Nc1cc(-c2ccc(C(F)(F)F)cc2)no1` had a melting point of 142 to 144 °C. Compound `CN1CCN(C(=NNS(=O)(=O)c2ccccc2)c2ccc(Cl)cc2Cl)CC1` showed a melting point of 174 to 176 °C.

`CCOC(=O)C1=C(C(=O)O)CC(C(=O)O)([N+](=O)[O-])C=C1` (centres undefined) yielded a melting point of 189 to 191 °C.

`CC(=O)OC(C)c1cc2c(s1)C(=O)c1c(C(C)OC(C)=O)csc1C2=O` (centres undefined) showed a melting point of 180 to 182 °C. `COc1nc2cc(Cl)cc(Cl)c2cc1Br` yielded a melting point of 135 to 138 °C. `CN1C(=O)CN=C(c2ccccc2F)c2c1ccc(N)c2Cl`: the melting point turned out to be 126 °C. As to `COc1ccc(Cn2nc(-c3ccc(OC)cc3)c(-c3ccncc3)cc2=O)cc1`, the melting point turned out to be 143 °C. On to `N=C(N)NC(=O)c1cn(-c2ccnc3ccccc23)c2ncccc12`, for which the melting point came out at 164 °C. In the case of `Cc1cc(C(=O)CS(C)(=O)=O)cc(C)c1N` it was 179 to 180 °C; in that of `CC1(C)CC1C(=O)NC(=CCCCSc1ncccc1O)C(=O)O` (centres undefined), more than 70 °C; in that of `Cn1cc(C(=O)NCc2ccc(Cl)cc2)c(=O)c2cc(COCC[C@@H](O)c3ccccc3)sc21`, 154 to 156 °C. With `OC(COCc1cccnc1)c1ccc2occc2c1` (centres undefined), the melting point lay in the range of 85 to 86 °C. `Oc1cc2c(cc1O)OCC(c1cccc(F)c1)C2` (centres undefined) displayed a melting point of 121 to 123 °C.

The compound `Cc1cc(C(=O)CCc2cc(-c3ccc(C(F)(F)F)cc3)nn2Cc2ccccc2)ccc1OC(C)(C)C(=O)O` gave a melting point of 55 °C. In the case of `Cc1cc(CNC(=O)c2cc(-n3cnn(Cc4ccc(F)cc4)c3=O)n[nH]2)no1` it was 276 to 277 °C; in that of `CCc1c(C)nc(-c2ncc([N+](=O)[O-])n2C)nc1C`, 110 °C; in that of `Cc1ncc(CO)c(C2NC(C(=O)O)C(C)(C)S2)c1O` (centres undefined), 201 to 202 °C. Compound `Cc1c(F)c(N2CCC(N)C2)nc2c1c(=O)c(C(=O)O)cn2-c1ccc(F)cc1F` (centres undefined) displayed a melting point of 260 °C.
